Assay results as given in patent US20170313669A1, “LACTONE COMPOUNDS AND METHODS OF MAKING AND USING SAME” (THE SCRIPPS RESEARCH INSTITUTE, priority 2015, published 2017).

What was measured:
ABHD16A = biological target: T1, ABHD16A (Homo sapiens, UniProt O95870); assay: PS substrate assay, human ABHD16A-transfected HEK293T membrane proteome; type: biochemical; design: transiently transfected with 12 μg of the full-length cDNA of human ABHD16A (Open Biosystems Catalog # MHS6278-202758315); host or cells: HEK293T, transient, pCMV-SPORT6
T1 sequence (O95870 1-558): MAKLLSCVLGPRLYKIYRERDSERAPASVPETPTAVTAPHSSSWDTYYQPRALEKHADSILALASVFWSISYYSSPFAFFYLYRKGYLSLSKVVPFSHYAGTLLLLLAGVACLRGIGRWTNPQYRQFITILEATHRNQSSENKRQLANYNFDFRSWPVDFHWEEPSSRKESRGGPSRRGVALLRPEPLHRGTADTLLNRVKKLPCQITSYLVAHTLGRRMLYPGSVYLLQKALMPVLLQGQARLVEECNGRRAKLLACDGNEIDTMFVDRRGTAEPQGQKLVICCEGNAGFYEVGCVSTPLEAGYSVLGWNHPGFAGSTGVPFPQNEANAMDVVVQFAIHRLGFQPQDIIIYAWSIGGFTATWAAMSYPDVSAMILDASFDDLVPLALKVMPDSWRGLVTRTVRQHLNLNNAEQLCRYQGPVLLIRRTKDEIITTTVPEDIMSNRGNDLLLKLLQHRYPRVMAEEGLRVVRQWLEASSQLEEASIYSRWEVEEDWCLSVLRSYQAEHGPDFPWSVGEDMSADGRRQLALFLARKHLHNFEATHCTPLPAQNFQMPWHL
Protocol: HEK293T cells were grown to 40% confluence in a 15 cm dish in 25 mL of Dulbecco's modified Eagle medium (DMEM) supplemented with L-glutamine and 10% (vol/vol) FCS at 37° C. and 5% CO2 (vol/vol). The cells were transiently transfected with 12 μg of the full-length cDNA of human ABHD16A (Open Biosystems Catalog # MHS6278-202758315) or murine ABHD16A (Open Biosystems Catalog # MMM1013-202760516) in pCMV-SPORT6 vector using 40 μg polyethyleneimine “MAX” (MW 40,000) (PEI) (Polysciences Inc. Catalog #24765) as the transfection reagent as per manufacturer's instructions. As a “mock” control, an empty vector was transiently transfected. […] Protein concentration was measured using the Bio-Rad DC Protein Assay Kit as per manufacturer's protocol, and ABHD16A expression was confirmed using gel-based ABPP.
All the lipid species used in the lipid substrate hydrolysis assays were purchased from Avanti Polar Lipids Inc unless mentioned otherwise. […] All the data was collected and analyzed using the Agilent MassHunter Workstation software version B.04 using the Data Acquisition and Quantitative Analysis programs respectively. Measuring the area under the peak, and normalizing it to the internal standard quantified the product release for the lipid substrate hydrolysis assays. […] Some products from the substrate hydrolysis assays were detected in positive ion mode for qualitative identification. […]

ABHD12−/− macrophages = assay: Lyso-PS and cytokine secretion of ABHD12−/− macrophages; type: cell-based, mouse; details: pre-treatment 1 μM, 4 h
Protocol: (a, b) Concentrations of secreted cytokines from ABHD12^+/+ and ABHD12^−/− thioglycollate-elicited peritoneal macrophages that were either unstimulated (PBS) (a) or stimulated (b) with LPS (5 μg/mL, 7 h). […] Student's t-test: * p<0.05 for ABHD12^−/− and ABHD12^+/+ groups. (c) Concentrations of secreted lyso-PS from ABHD12^+/+ and ABHD12^−/− macrophages treated with vehicle (PBS) or LPS (5 μg/mL) for 7 h. […] Student's t-test: ** p<0.0005, *** p<0.0001 for KC01-treated versus DMSO-treated groups.
Peritoneal macrophages were elicited and harvested from mice according to the standard protocols available from LIPID MAPS (See http://www.lipidmaps.org/protocols/PP0000001400.pdf and http://www.lipidmaps.org/protocols/PP0000001500.pdf). After removal of the RBC lysis buffer, the macrophages were re-suspended in RPMI 1640 with 10% FCS and IX penicillin-streptomycin. Cell counts measured using a Bio-Rad TC10 automated cell counter, and equal numbers of cells (2×10^6) were plated in 10 cm tissue culture dishes. Macrophages were allowed to adhere to the plates for 2 h at 37° C. and 5% CO2. […] Macrophages were then stimulated with lipopolysaccharide (5 μg/mL) for 7 hours. Sterile PBS was the vehicle in these studies. Four milliliters of the media was used for measuring secreted metabolites, and 0.5 mL was used for cytokine measurements.

CCCCCCCCCCCCCC1OC(=O)/C1=C\CCCCC(N)=O (centres unmarked) [KC01, (Z)-6-(2-oxo-4-tridecyloxetan-3-ylidene)hexanamide]
IC50 (ABHD16A): 90 ± 20 nM
LPS-induced increases in lyso-PSs and cytokine secretion (ABHD12−/− macrophages): both blocked
